Data: US8791144B2, “Substituted N-phenyl-1-(4-Pyridinyl)-1H-pyrazol-3-amines” (Janssen Pharmaceutica NV, priority 2009, dated 2014)

Tests used:
hα7-wt nAChR [1] = target: T1, hα7-wt nAChR (Homo sapiens, UniProt P36544); experiment: Ca2+ flux imaging (FDSS): potentiation of the choline response; format: cell-based; settings: Ca2+ assay as described in D.1, potentiation of choline response, hα7-wt nAChR; for EC50: read-out: Potency (pEC50) (converted)
How it was run: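 Cells expressing human α7-wt nAChR loaded with fluo-4AM (2 μM final) up to 120 min; HBSS/10 mM HEPES/5 mM CaCl2/0.1% BSA buffer. Compound (0.01–30 μM) applied up to 10 min before 100 μM choline; peak fluorescence measured on FDSS relative to choline alone (100%). EC50 from sigmoidal curves.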

hα7-wt nAChR [2] = target: T1, hα7-wt nAChR; experiment: Patch-clamp current recording (whole-cell voltage clamp), potentiation of choline current and PAM type; format: cell-based; design: key: Type 0 compounds minimally enhance the effect size of the current elicited by 1 mM choline.; Type 1 compounds enhance the effect size of the current elicited by 1 mM choline but minimally alter the kinetics of the receptor.; Type 2 compounds enhance the effect size of the current elicited by 1 mM choline while reducing the rate and/or the extent of desensitization.; Type 3 compounds enhance the effect size of the current elicited by 1 mM choline. When tested at higher concentrations up to 10 μM they completely inhibit desensitization, in particular a 1 mM choline application of 250 milliseconds.; Type 4 compounds allow for an initial desensitization of the receptor followed by a re-opening of the receptor during agonist application; settings: hα7-wt nAChR-expressing GH4C1 cells, 1 mM choline
Procedure: The compounds of the present invention are classified as type 0-4, based on qualitative kinetic properties, as determined by whole-cell voltage-clamp recordings. This classification is based on the effect of an α7 PAM compound, as described hereinbefore, on the signal elicited by an agonist application. In particular, said agonist is choline at a concentration of 1 mM. In a preferred experimental setting, said α7 PAM compound and choline are simultaneously applied to the cell, as described hereinafter. Desensitization is defined as the closure of the receptor upon activation during the application of the agonist in whole-cell voltage-clamp electrophysiology measurements seen as the reduction of the […] current after initial activation by the agonist.
The definition of the PAM types 0-4 is described hereinafter: • Type 0 compounds minimally enhance the effect size of the current elicited by 1 mM choline. • Type 1 compounds enhance the effect size of the current elicited by 1 mM choline but minimally alter the kinetics of the receptor. In particular, the rate and the extent of desensitization, elicited by the agonist, is not affected. The compound-modulated response to 1 mM choline, therefore, is a close to linear scaling of the 1 mM choline response in absence of the α7 PAM compound. • Type 2 compounds enhance the effect size of the current elicited by 1 mM choline while reducing the rate and/or the extent of desensitization. • Type 3 compounds enhance the effect size of the current elicited by 1 mM choline. […] At low-potency concentrations of the α7 PAM compound, the agonist-induced activation, which is followed by desensitization, can still be separated from the compound-induced re-opening as an initial inward current-maximum. At higher potency concentrations of the α7 PAM compound, the re-opening occurs faster than the closure due to desensitization so that the initial current-maximum disappears.
A compound was considered to have interesting PAM-like activity when the potentiation of the peak current was at least 200% compared to the control choline response (=100%). Such compounds are classified as belonging to a particular PAM type in the Experimental Part. Compounds not meeting the condition are not classified as belonging to a particular PAM-type.
The compounds also have a potentiating effect on the response to choline when measured by whole-cell patch clamp electrophysiology in GH4C1 cells stably over-expressing the human wild-type α7 receptor.
Patch-clamp recording from mammalian cells has provided a powerful means of assessing the function of membrane-bound proteins thought to be subunits of ligand-gated ion channels. Activation of such proteins by endogenous or exogenous ligands cause opening of a pore associated with the receptor through which ions flow down their electrochemical gradient. In the case of the hα7-wt nAChR-expressing GH4C1 recombinant cell line the preferential permeability to calcium of this receptor means that calcium flows into the cell upon activation by ACh, choline and other nicotinic ligands giving rise to a calcium current. Since this receptor rapidly desensitizes in the presence of agonist it is important an application system is used which is capable of very rapid switching of solutions (<100 ms) to prevent partial or full desensitisation of receptor responses coincident with the time of agonist application. Consequently, a second convenient technique to assess the enhancement of nicotinic efficacy is patch-clamp recording from hα7-wt nAChR-expressing GH4C1 cells coupled with a rapid-application system.
• a) Assay Buffers • The external recording solution consisted of 152 mM NaCl, 5 mM KCl, 1 mM MgCl2, 1 mM Calcium, 10 mM HEPES; pH 7.3. […]

T1 sequence (P36544 23-502): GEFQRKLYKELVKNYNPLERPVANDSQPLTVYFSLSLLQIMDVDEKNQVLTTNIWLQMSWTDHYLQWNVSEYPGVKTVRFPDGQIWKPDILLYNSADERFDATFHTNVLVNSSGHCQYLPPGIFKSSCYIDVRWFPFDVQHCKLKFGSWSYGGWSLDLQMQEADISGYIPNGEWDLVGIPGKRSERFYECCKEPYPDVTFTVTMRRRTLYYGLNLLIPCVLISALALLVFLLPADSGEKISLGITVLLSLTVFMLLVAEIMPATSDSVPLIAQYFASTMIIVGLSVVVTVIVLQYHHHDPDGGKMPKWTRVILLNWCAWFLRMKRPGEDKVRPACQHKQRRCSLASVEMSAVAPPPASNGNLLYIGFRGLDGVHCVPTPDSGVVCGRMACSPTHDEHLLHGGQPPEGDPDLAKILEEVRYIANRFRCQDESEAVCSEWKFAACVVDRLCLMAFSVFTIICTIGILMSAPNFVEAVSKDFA

EC50 (hα7-wt nAChR [1]) [nM]	melting point [°C]	Emax (hα7-wt nAChR [1]; read-out: % Efficacy) [%]	SMILES	PAM type (hα7-wt nAChR [2])
234	251.3	–	COc1cc(Nc2cc(CC(=O)NC3CC3)n(-c3ccnc(C)c3)n2)cc(C(F)(F)F)c1 [Compound 46, N-cyclopropyl-3-[[3-methoxy-5-(trifluoromethyl)phenyl]amino]-1-(2-methyl-4-pyridinyl)-1H-pyrazole-5-acetamide]	4
2400	149.1	–	CC[C@H](O)Cc1cc(Nc2ccc(F)c(F)c2F)nn1-c1ccnc(C)c1 [Compound 18, (alphaS)-alpha-ethyl-1-(2-methyl-4-pyridinyl)-3-[(2,3,4-trifluorophenyl)amino]-1H-pyrazole-5-ethanol]	1
1320	129	–	CC[C@H](O)Cc1cc(Nc2ccc(OC)c(C(F)(F)F)c2)nn1-c1ccnc(C)c1 [Compound 38, (alphaS)-alpha-ethyl-3-[[4-methoxy-3-(trifluoromethyl)phenyl]amino]-1-(2-methyl-4-pyridinyl)-1H-pyrazole-5-ethanol]	2
95.5	210.4	–	Cc1cc(-n2nc(Nc3cccc(Cl)c3F)cc2CC(=O)NCC2CC2)cc(C)n1 [Compound 80, 3-[(3-chloro-2-fluorophenyl)amino]-N-(cyclopropylmethyl)-1-(2,6-dimethyl-4-pyridinyl)-1H-pyrazole-5-acetamide]	2
832	164.7	–	CC[C@@H](O)Cc1cc(Nc2ccc(F)c(F)c2)nn1-c1ccnc(C)c1 [Compound 10, (alphaR)-3-[(3,4-difluorophenyl)amino]-alpha-ethyl-1-(2-methyl-4-pyridinyl)-1H-pyrazole-5-ethanol]	2
245	229.1	–	Cc1cc(-n2nc(Nc3cccc(OC(F)(F)F)c3)cc2CC(=O)NC(C)C)cc(C)n1 [Compound 116, 1-(2,6-dimethyl-4-pyridinyl)-N-(1-methylethyl)-3-[[3-(trifluoromethoxy)phenyl]amino]-1H-pyrazole-5-acetamide]	2
1660	163.2	880	CC[C@H](O)Cc1cc(Nc2ccc(F)c(F)c2)nn1-c1ccnc(C)c1 [Compound 17, (alphaS)-3-[(3,4-difluorophenyl)amino]-alpha-ethyl-1-(2-methyl-4-pyridinyl)-1H-pyrazole-5-ethanol]	2
562	237.9	–	CNC(=O)Cc1cc(Nc2cc(OC)cc(C(F)(F)F)c2)nn1-c1ccnc(C)c1 [Compound 43, 3-[[3-methoxy-5-(trifluoromethyl)phenyl]amino]-N-methyl-1-(2-methyl-4-pyridinyl)-1H-pyrazole-5-acetamide]	4
490	223.2	–	Cc1cc(-n2nc(Nc3cccc(Cl)c3F)cc2CC(=O)NC2CCC2)ccn1 [Compound 82, 3-[(3-chloro-2-fluorophenyl)amino]-N-cyclobutyl-1-(2-methyl-4-pyridinyl)-1H-pyrazole-5-acetamide]	2
3470	166.6	–	CC[C@H](O)Cc1cc(Nc2cc(F)c(F)cc2F)nn1-c1ccnc(C)c1 [Compound 21, (alphaS)-alpha-ethyl-1-(2-methyl-4-pyridinyl)-3-[(2,4,5-trifluorophenyl)amino]-1H-pyrazole-5-ethanol]	2
1100	192.6	–	Cc1cc(-n2nc(Nc3cccc(Cl)c3F)cc2CC(=O)NC2CC2)ccn1 [Compound 76, 3-[(3-chloro-2-fluorophenyl)amino]-N-cyclopropyl-1-(2-methyl-4-pyridinyl)-1H-pyrazole-5-acetamide]	3
2340	163.3	–	Cc1cc(-n2nc(Nc3ccc4c(c3)OC(F)(F)O4)cc2CCCO)ccn1 [Compound 92, 3-[(2,2-difluoro-1,3-benzodioxol-5-yl)amino]-1-(2-methyl-4-pyridinyl)-1H-pyrazole-5-propanol]	2
389	228.3	–	Cc1cc(-n2nc(Nc3cccc(OC(F)(F)F)c3)cc2CC(=O)NC(C)C)ccn1 [Compound 115, N-(1-methylethyl)-1-(2-methyl-4-pyridinyl)-3-[[3-(trifluoromethoxy)phenyl]amino]-1H-pyrazole-5-acetamide]	1
1820	147.3	–	CC[C@H](O)Cc1cc(Nc2cccc(OC(F)(F)F)c2)nn1-c1ccnc(C)c1 [Compound 106, (alphaS)-alpha-ethyl-1-(2-methyl-4-pyridinyl)-3-[[3-(trifluoromethoxy)phenyl]amino]-1H-pyrazole-5-ethanol]	2
692	230.3	–	Cc1cc(-n2nc(Nc3ccc(F)c(F)c3)cc2CC(=O)NCC2CC2)ccn1 [Compound 29, N-(cyclopropylmethyl)-3-[(3,4-difluorophenyl)amino]-1-(2-methyl-4-pyridinyl)-1H-pyrazole-5-acetamide]	2
1700	138.3	–	CC[C@H](O)Cc1cc(Nc2ccc3c(c2)OC(F)(F)O3)nn1-c1ccnc(C)c1 [Compound 93, (alphaS)-3-[(2,2-difluoro-1,3-benzodioxol-5-yl)amino]-alpha-ethyl-1-(2-methyl-4-pyridinyl)-1H-pyrazole-5-ethanol]	2
302	220.5	–	Cc1cc(-n2nc(Nc3cccc(Cl)c3F)cc2CC(=O)NCC2CC2)ccn1 [Compound 79, 3-[(3-chloro-2-fluorophenyl)amino]-N-(cyclopropylmethyl)-1-(2-methyl-4-pyridinyl)-1H-pyrazole-5-acetamide]	4
1260	248.9	–	Cc1cc(-n2nc(Nc3ccc4c(c3)OC(F)(F)O4)cc2CC(=O)NC2CC2)ccn1 [Compound 100, N-cyclopropyl-3-[(2,2-difluoro-1,3-benzodioxol-5-yl)amino]-1-(2-methyl-4-pyridinyl)-1H-pyrazole-5-acetamide]	2
145	236.4	–	COc1cc(Cl)cc(Nc2cc(CC(=O)NC3CCC3)n(-c3ccnc(C)c3)n2)c1 [Compound 83, 3-[(3-chloro-5-methoxyphenyl)amino]-N-cyclobutyl-1-(2-methyl-4-pyridinyl)-1H-pyrazole-5-acetamide]	4

SMILES	EC50 (hα7-wt nAChR [1]) [nM]	melting point [°C]	Emax (hα7-wt nAChR [1]; read-out: % Efficacy) [%]	PAM type (hα7-wt nAChR [2])
CCNC(=O)Cc1cc(Nc2ccc3c(c2)OC(F)(F)O3)nn1-c1ccnc(C)c1 [Compound 98, 3-[(2,2-difluoro-1,3-benzodioxol-5-yl)amino]-N-ethyl-1-(2-methyl-4-pyridinyl)-1H-pyrazole-5-acetamide]	1200	239.2	–	2
